Where a SMILES comes first, the peptide text is derived from it. Bridges are numbered along the chain shown (N, C = ends). [ ]: non-standard residue; d: D form. ξ: configuration not given here. Bip = N[C@@H](Cc1ccc(-c2ccccc2)cc1)C(=O)O; Cit = NC(=O)NCCC[C@H](N)C(=O)O; Ile(3ξ) = CCC(C)[C@H](N)C(=O)O; ξIle = CC[C@H](C)C(N)C(=O)O; Orn = NCCC[C@H](N)C(=O)O; Dab = NCC[C@H](N)C(=O)O; Dap = NC[C@H](N)C(=O)O

16 compounds from patent US20250163104A1, “MACROCYCLIC IMMUNOMODULATORS” (priority 2021, published 2025) can be followed below.

T1 sequence (Q15116 25-288): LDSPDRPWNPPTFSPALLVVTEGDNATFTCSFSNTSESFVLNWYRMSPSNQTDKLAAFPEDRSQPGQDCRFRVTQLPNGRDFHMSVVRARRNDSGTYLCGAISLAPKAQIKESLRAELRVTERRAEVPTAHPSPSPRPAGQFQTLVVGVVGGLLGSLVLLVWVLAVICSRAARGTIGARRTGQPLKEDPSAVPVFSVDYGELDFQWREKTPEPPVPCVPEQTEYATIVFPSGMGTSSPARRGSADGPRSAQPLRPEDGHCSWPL

This test addresses T1, human PD-1 / PD-L1-Ig binding on Jurkat cell line over-expressing human PD-1 (Jurkat-PD-1) (Homo sapiens, UniProt Q15116).
T1 construct: expressed in transfected cells; host or cells: Jurkat
The test can be described thus: Jurkat-PD-1 Cell Binding High-Content Screening Assay (CBA). The test is classed as cell-based. To be noted: Jurkat-PD-1 cells, PE-labeled PD-L1-Ig 20 nM final; read-out: Jurkat HPD1_PDL1 IC50. In short, it runs like this: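 Read-out: high-content imaging of PE-tagged PD-L1-Ig bound to Jurkat cells overexpressing human PD-1, after fixation with 4% paraformaldehyde and Hoechst 33342 nuclear staining. Ligand was used at 20 nM final for 1 hour, after a 2 h compound exposure at 37° C in serum-containing DMEM.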
The IC50 is the concentration at which inhibition is half-maximal. For `CC(C)C[C@@H]1NC(=O)[C@H](Cc2c[nH]c3ccccc23)NC(=O)[C@H](CC(=O)O)NC(=O)[C@H](Cc2ccc(O)cc2)NC(=O)[C@H](Cc2ccccc2)NC(=O)CSC[C@@H](C(=O)N[C@@H](C)C(N)=O)NC(=O)[C@H]([C@@H](C)O)NC(=O)[C@H](C(C)C)NC(=O)[C@H](CC(C)C)NC(=O)[C@H](CC(N)=O)NC(=O)[C@@H](C)NC(=O)[C@H](CN)NC(=O)[C@H](C(C)C)NC(=O)[C@H](Cc2ccc(-c3ccccc3)cc2)NC1=O` [Compound 1076] ({CH2CO}-FYDWL[Bip]V[Dap][dA]NLVTCA-NH2; thioether N-14), the IC50 was found to be 68.7 nM.

For `CC(C)C[C@@H]1NC(=O)[C@H](Cc2c[nH]c3ccccc23)NC(=O)[C@H](CC(=O)O)NC(=O)[C@H](Cc2ccc(O)cc2)NC(=O)[C@H](Cc2ccccc2)NC(=O)CSC[C@@H](C(=O)NCC(N)=O)NC(=O)[C@H](CO)NC(=O)[C@H](C(C)C)NC(=O)[C@H](CC(C)C)NC(=O)[C@H](CC(N)=O)NC(=O)[C@@H](C)NC(=O)[C@H](CN)NC(=O)[C@H](C(C)C)NC(=O)[C@H](Cc2ccc(-c3ccccc3)cc2)NC1=O` [Compound 1077] ({CH2CO}-FYDWL[Bip]V[Dap][dA]NLVSCG-NH2; thioether N-14), the IC50 was determined as 46.7 nM.

In the case of `CC(C)C[C@@H]1NC(=O)[C@H](Cc2c[nH]c3ccccc23)NC(=O)[C@H](CC(=O)O)NC(=O)[C@H](Cc2ccc(O)cc2)NC(=O)[C@H](Cc2ccccc2)NC(=O)CSC[C@@H](C(=O)NCC(N)=O)NC(=O)[C@H]([C@@H](C)O)NC(=O)[C@H](C(C)C)NC(=O)[C@H](CC(C)C)NC(=O)[C@H](CCN)NC(=O)[C@@H](C)NC(=O)[C@H](CN)NC(=O)[C@H](C(C)C)NC(=O)[C@H](Cc2ccc(-c3ccccc3)cc2)NC1=O` [Compound 1078] ({CH2CO}-FYDWL[Bip]V[Dap][dA][Dab]LVTCG-NH2; thioether N-14), the IC50 came to 40.2 nM.

For the compound `CC(C)C[C@@H]1NC(=O)[C@H](Cc2c[nH]c3ccccc23)NC(=O)[C@H](CC(=O)O)NC(=O)[C@H](Cc2ccc(O)cc2)NC(=O)[C@H](Cc2ccccc2)NC(=O)CSC[C@@H](C(=O)N[C@@H](C)C(N)=O)NC(=O)[C@H](CO)NC(=O)[C@H](C(C)C)NC(=O)[C@H](CC(C)C)NC(=O)[C@H](CCN)NC(=O)[C@@H](C)NC(=O)[C@H](CN)NC(=O)[C@H](C(C)C)NC(=O)[C@H](Cc2ccc(-c3ccccc3)cc2)NC1=O` [Compound 1079] ({CH2CO}-FYDWL[Bip]V[Dap][dA][Dab]LVSCA-NH2; thioether N-14), the IC50 came to 29.5 nM.

In the case of `CC(C)C[C@@H]1NC(=O)[C@H](CCN)NC(=O)[C@@H](CC(C)C)NC(=O)[C@H](CCN)NC(=O)[C@H](C(C)C)NC(=O)[C@H](Cc2ccc(-c3ccccc3)cc2)NC(=O)[C@H](C(C)C)NC(=O)[C@H](Cc2c[nH]c3ccccc23)NC(=O)[C@H](CC(N)=O)NC(=O)[C@H](Cc2ccc(O)cc2)NC(=O)[C@H](CC(N)=O)NC(=O)CSC[C@@H](C(=O)N[C@@H](C)C(N)=O)NC(=O)[C@H](CO)NC(=O)[C@H](C(C)C)NC1=O` [Compound 1080] ({CH2CO}-NYNWV[Bip]V[Dab][dL][Dab]LVSCA-NH2; thioether N-14), the IC50 was determined as 47.1 nM.

For `CC(C)C[C@@H]1NC(=O)[C@H](CCN)NC(=O)[C@@H](CC(C)C)NC(=O)[C@H](CCCN)NC(=O)[C@H](C(C)C)NC(=O)[C@H](Cc2ccc(-c3ccccc3)cc2)NC(=O)[C@H](C(C)C)NC(=O)[C@H](Cc2c[nH]c3ccccc23)NC(=O)[C@H](CC(N)=O)NC(=O)[C@H](Cc2ccc(O)cc2)NC(=O)[C@H](CC(N)=O)NC(=O)CSC[C@@H](C(=O)NCC(N)=O)NC(=O)[C@H](CO)NC(=O)[C@H](C(C)C)NC1=O` [Compound 1081] ({CH2CO}-NYNWV[Bip]V[Orn][dL][Dab]LVSCG-NH2; thioether N-14), the IC50 was 28.6 nM.

In the case of `CC(C)C[C@@H]1NC(=O)[C@H](CCN)NC(=O)[C@@H](CC(C)C)NC(=O)[C@H](CCCCN)NC(=O)[C@H](C(C)C)NC(=O)[C@H](Cc2ccc(-c3ccccc3)cc2)NC(=O)[C@H](C(C)C)NC(=O)[C@H](Cc2c[nH]c3ccccc23)NC(=O)[C@H](CC(N)=O)NC(=O)[C@H](Cc2ccc(O)cc2)NC(=O)[C@H](CC(N)=O)NC(=O)CSC[C@@H](C(=O)NCC(N)=O)NC(=O)[C@H](CO)NC(=O)[C@H](C(C)C)NC1=O` [Compound 1082] ({CH2CO}-NYNWV[Bip]VK[dL][Dab]LVSCG-NH2; thioether N-14), the IC50 was determined as 41.5 nM.

As to `CC(C)C[C@@H]1NC(=O)[C@H](CCN)NC(=O)[C@@H](CC(C)C)NC(=O)[C@H](CCN)NC(=O)[C@H](C(C)C)NC(=O)[C@H](Cc2ccc(-c3ccccc3)cc2)NC(=O)[C@H](C(C)C)NC(=O)[C@H](Cc2c[nH]c3ccccc23)NC(=O)[C@H](CC(N)=O)NC(=O)[C@H](Cc2ccc(O)cc2)NC(=O)[C@H](CC(N)=O)NC(=O)CSC[C@@H](C(=O)NCC(N)=O)NC(=O)[C@H](CO)NC(=O)[C@H](C(C)C)NC1=O` [Compound 1083] ({CH2CO}-NYNWV[Bip]V[Dab][dL][Dab]LVSCG-NH2; thioether N-14), the IC50 was determined as 16.8 nM.

As for `CC(C)C[C@@H]1NC(=O)[C@H](CCN)NC(=O)[C@@H](CC(C)C)NC(=O)[C@H](CCCN)NC(=O)[C@H](C(C)C)NC(=O)[C@H](Cc2ccc(-c3ccccc3)cc2)NC(=O)[C@H](C(C)C)NC(=O)[C@H](Cc2c[nH]c3ccccc23)NC(=O)[C@H](CC(N)=O)NC(=O)[C@H](Cc2ccc(O)cc2)NC(=O)[C@H](CC(N)=O)NC(=O)CSC[C@@H](C(=O)NCC(N)=O)NC(=O)[C@H]([C@@H](C)O)NC(=O)[C@H](C(C)C)NC1=O` [Compound 1084] ({CH2CO}-NYNWV[Bip]V[Orn][dL][Dab]LVTCG-NH2; thioether N-14), the IC50 is 28.9 nM.

Consider `CC(C)C[C@@H]1NC(=O)[C@H](CCN)NC(=O)[C@@H](CC(C)C)NC(=O)[C@H](CCCCN)NC(=O)[C@H](C(C)C)NC(=O)[C@H](Cc2ccc(-c3ccccc3)cc2)NC(=O)[C@H](C(C)C)NC(=O)[C@H](Cc2c[nH]c3ccccc23)NC(=O)[C@H](CC(N)=O)NC(=O)[C@H](Cc2ccc(O)cc2)NC(=O)[C@H](CC(N)=O)NC(=O)CSC[C@@H](C(=O)NCC(N)=O)NC(=O)[C@H]([C@@H](C)O)NC(=O)[C@H](C(C)C)NC1=O` [Compound 1085] ({CH2CO}-NYNWV[Bip]VK[dL][Dab]LVTCG-NH2; thioether N-14), for which the IC50 was determined as 22.3 nM.

`CC(C)C[C@@H]1NC(=O)[C@H](CCN)NC(=O)[C@@H](CC(C)C)NC(=O)[C@H](CCN)NC(=O)[C@H](C(C)C)NC(=O)[C@H](Cc2ccc(-c3ccccc3)cc2)NC(=O)[C@H](C(C)C)NC(=O)[C@H](Cc2c[nH]c3ccccc23)NC(=O)[C@H](CC(N)=O)NC(=O)[C@H](Cc2ccc(O)cc2)NC(=O)[C@H](CC(N)=O)NC(=O)CSC[C@@H](C(=O)NCC(N)=O)NC(=O)[C@H]([C@@H](C)O)NC(=O)[C@H](C(C)C)NC1=O` [Compound 1086] ({CH2CO}-NYNWV[Bip]V[Dab][dL][Dab]LVTCG-NH2; thioether N-14): the IC50 was determined as 20.5 nM.

With `CC(C)C[C@@H]1NC(=O)[C@H](CCN)NC(=O)[C@@H](CC(C)C)NC(=O)[C@H](CCCN)NC(=O)[C@H](C(C)C)NC(=O)[C@H](Cc2ccc(-c3ccccc3)cc2)NC(=O)[C@H](C(C)C)NC(=O)[C@H](Cc2c[nH]c3ccccc23)NC(=O)[C@H](CC(N)=O)NC(=O)[C@H](Cc2ccc(O)cc2)NC(=O)[C@H](CN)NC(=O)CSC[C@@H](C(=O)N[C@@H](C)C(N)=O)NC(=O)[C@H]([C@@H](C)O)NC(=O)[C@H](C(C)C)NC1=O` [Compound 1087] ({CH2CO}-[Dap]YNWV[Bip]V[Orn][dL][Dab]LVTCA-NH2; thioether N-14), the IC50 was found to be 36.6 nM.

As to `CC(C)C[C@@H]1NC(=O)[C@H](CCN)NC(=O)[C@@H](CC(C)C)NC(=O)[C@H](CCCN)NC(=O)[C@H](CCCNC(N)=O)NC(=O)[C@H](Cc2ccc(-c3ccccc3)cc2)NC(=O)[C@H](C(C)C)NC(=O)[C@H](Cc2c[nH]c3ccccc23)NC(=O)[C@H](CC(N)=O)NC(=O)[C@H](Cc2ccc(O)cc2)NC(=O)[C@H](CN)NC(=O)CSC[C@@H](C(=O)N[C@@H](C)C(N)=O)NC(=O)[C@H]([C@@H](C)O)NC(=O)[C@H](C(C)C)NC1=O` [Compound 1088] ({CH2CO}-[Dap]YNWV[Bip][Cit][Orn][dL][Dab]LVTCA-NH2; thioether N-14), the IC50 is 23.7 nM.

With `CC[C@H](C)C1NC(=O)[C@H](Cc2ccc(-c3ccccc3)cc2)NC(=O)[C@H](C(C)C)NC(=O)[C@H](Cc2c[nH]c3ccccc23)NC(=O)[C@H](CC(N)=O)NC(=O)[C@H](Cc2ccc(O)cc2)NC(=O)[C@H](CN)NC(=O)CSC[C@@H](C(=O)N[C@@H](C)C(N)=O)NC(=O)[C@H]([C@@H](C)O)NC(=O)[C@H](C(C)C)NC(=O)[C@H](CC(C)C)NC(=O)[C@H](CCN)NC(=O)[C@@H](CC(C)C)NC(=O)[C@H](CN)NC1=O` (stereo partly drawn) [Compound 1089] ({CH2CO}-[Dap]YNWV[Bip][ξIle][Dap][dL][Dab]LVTCA-NH2; thioether N-14), the IC50 amounted to 26.7 nM.

With `CC[C@H](C)C1NC(=O)[C@H](Cc2ccc(-c3ccccc3)cc2)NC(=O)[C@H](C(C)C)NC(=O)[C@H](Cc2c[nH]c3ccccc23)NC(=O)[C@H](CC(N)=O)NC(=O)[C@H](Cc2ccc(O)cc2)NC(=O)[C@H](CN)NC(=O)CSC[C@@H](C(=O)N[C@@H](C)C(N)=O)NC(=O)[C@H]([C@@H](C)O)NC(=O)[C@H](C(C)C)NC(=O)[C@H](CC(C)C)NC(=O)[C@H](CCN)NC(=O)[C@@H](CC(C)C)NC(=O)[C@H](CCN)NC1=O` (stereo partly drawn) [Compound 1090] ({CH2CO}-[Dap]YNWV[Bip][ξIle][Dab][dL][Dab]LVTCA-NH2; thioether N-14), the IC50 came out at 28 nM.

As to `CCC(C)[C@@H]1NC(=O)[C@H](Cc2ccc(-c3ccccc3)cc2)NC(=O)[C@H](C(C)C)NC(=O)[C@H](Cc2c[nH]c3ccccc23)NC(=O)[C@H](CC(N)=O)NC(=O)[C@H](Cc2ccc(O)cc2)NC(=O)[C@H](CN)NC(=O)CSC[C@@H](C(=O)N[C@@H](C)C(N)=O)NC(=O)[C@H]([C@@H](C)O)NC(=O)[C@H](C(C)C)NC(=O)[C@H](CC(C)C)NC(=O)[C@H](CCN)NC(=O)[C@@H](CC(C)C)NC(=O)[C@H](CCCCN)NC1=O` (stereo partly drawn) [Compound 1091] ({CH2CO}-[Dap]YNWV[Bip][Ile(3ξ)]K[dL][Dab]LVTCA-NH2; thioether N-14), the IC50 turned out to be 21.8 nM.
